Experimental data taken from patent US6900019B1, “In-situ cell extraction and assay method” (Amersham Biosciences UK Limited, priority 1997, dated 2005).
Several values for one entry are separate records, joined by “and”; a condition that tells them apart may be missing. Identical values can stand only once.

What was measured:
[1] = system: binding protein prepared from bovine adrenal cortex; experiment: Radioreceptor binding assay for D-myo-inositol 1,4,5-trisphosphate (IP3) with lysis reagent and sequestrant; conditions: 0.5% w/v DTAB in standards
Method: Bovine adrenal glands were removed from animals and stored at −20° C. before preparing the binding protein. The cortex was dissected from the adrenal glands, homogenised in NaHCO3 (20 mM) with dithiothreitol (1 mM), and the homogenate centrifuged at 5000 g for 15 minutes. The supernatant was centrifuged at 35000 g for 20 minutes, the resulting pellet resuspended in the homogenisation buffer and centrifuged again at 35000 g for 20 minutes. The final pellet was resuspended in homogenisaton buffer at a protein concentration of between 20-40 mg/ml.
For the assay, aliquots (100 μl) of the bovine adrenal cortex microsome preparation were incubated in 100 μl of 0.1M Tris buffer (pH9.0), containing 4 mM EDTA and 4 mg/ml bovine serum albumin. Incubations were carried out for 15 minutes in a final volume of 0.4 ml with [^3H] inositol 1,4,5-trisphosphate (100 μl; 6000 cpm) sample or standard (100 μl; 0.19-25 pmol inositol 1,4,5-trisphosphate/assay tube). Non-specific binding was determined in the presence of 1 nmol inositol 1,4,5-trisphosphate/tube. Incubations were terminated by centrifugation (12000 g) (10 minutes at 4° C.) and removal of the supernatant by gentle decantation. Particulate bound radioactivity was analysed, after suspension in 0.15M sodium hydroxide followed by neutralisation with 10% acetic acid, by liquid scintillation counting […]

[2] = system: rabbit anti-cAMP sera (antigen:antibody binding); experiment: Scintillation proximity radioimmunoassay for cAMP: standard curves with lysis reagents and sequestrants
Method: All assays were carried out in microtitre plates compatible with a microtitre plate beta scintillation counter. Standards (50 μl; 0.2-12.8 pmol/well), antisera (50 μl; at 1:11000 dilution), tracer (50 ul; 10000-20000 cpm) are added to anti-rabbit coated SPA beads (50 μl; 20 mg/ml). Non-specific binding was determined in the absence of specific rabbit antisera. SPA anti-rabbit reagent is placed onto a magnetic stirrer to ensure a homogeneous suspension before pipetting. All wells contained a total volume of 200 μl. The plates were sealed and incubated at room temperature (15-30° C.) for 15-20 hours. The amount of [^125I]cAMP bound to the SPA fluomicrospheres was determined by counting in a microtitre plate beta scintillation counter for 2 minutes.
Experiments were set up with:— • a) Working standards (4-256 pmol/ml; 0.2-12.8 pmol/well) were prepared in assay buffer (0.05M sodium acetate buffer containing 0.01% sodium azide) only (control) or assay buffer containing lysis reagent (e.g. DTAB, CPC or SDS; see experiment 1) at various concentrations. • b) Rabbit anti-cAMP sera prepared in assay buffer only (control) or assay buffer containing sequestrating agent at various concentrations depending on the experiment. • c) Radioactive tracer: adenosine 3′ 5′-cyclic phosphoric acid 2′-O-succinyl-3-[^125I] iodotyrosine methyl ester prepared in assay buffer only (control) or assay buffer containing sequestrating agent at various concentrations depending on the experiment. • d) Donkey anti-rabbit IgG coupled to scintillation proximity fluomicrospheres prepared in assay buffer only (control) or assay buffer containing sequestrating agent at various concentrations depending on the experiment. Experiment 1: Inhibition of Antigen and Antibody Binding by Several Lysis Reagents Method
In these experiments, standard curves were prepared for cAMP using the SPA immunoassay technique, described above, where working standards of cAMP were prepared in several lysis reagents at 1% (w/v) or 2% (w/v) final concentration. The detergents investigated included dodecyl trimethyl ammonium bromide (DTAB; Sigma Chemical Co. D8638), benzethonium chloride (BZC; Aldrich; B470-8), cetyl pyridinium chloride (CPC; Sigma Chemical Co; C9002), sodium dodecyl sulphate (SDS, Sigma chemical Co; L4509) and N-dodecyl-N,N-dimethyl-3-ammonio-1-propanesulphonate (DDAPS; Sigma Chemical Co.; D4516).
In these experiments, standard curves for cAMP were prepared using the SPA immunoassay technique described above, where working standards of cAMP were prepared in 1% (w/v), 1.5% (w/v) or 2% (w/v) lysis reagents (DTAB, SDS or CPC). The control consisted of no lysis reagent or cyclodextrin added. The effect including 2.5% (w/v) alpha-cyclodextrin (alpha-CD) (Sigma Chemical Co.; C4642) on antigen:antibody binding was investigated. Here, tracer, antisera and SPA beads were prepared in assay buffer containing 2.5% (w/v) alpha-CD. A second control tested the effect of 2.5% (w/v) alpha-CD on the standard curve without addition of lysis reagent.
In this experiment, standard curves for cAMP were prepared using the SPA radioimmunoassay where working standards of cAMP were prepared in 1% (w/v) DTAB. The effect of including 1% (w/v), 2% (w/v), 2.5% (w/v) and 5% (w/v) alpha-cyclodextrin on antigen:antibody binding was investigated. Here, tracer, antisera and SPA beads were prepared in assay buffer containing alpha-CD at the above concentrations. The control consisted of no lysis or cyclodextrin added to the assay.
In this experiment, standard curves for cAMP were prepared using the SPA immunoassay technique where working standards were prepared 1% (wt) lysis reagent (DTAB). The effect of including 2.5% (w/v) alpha-cyclodextrin (CD) 2.5% (w/v) beta-cyclodextrin (beta-CD) (Sigma is Chemical Co.; C4767) and 2.5% (w/v) gamma-cyclodextrin (gamma-CD) (Sigma Chemical Co.; 4892) on antigen:antibody binding was investigated. […]

OC[C@H]1O[C@@H]2O[C@H]3[C@H](O)[C@@H](O)[C@@H](O[C@H]4[C@H](O)[C@@H](O)[C@@H](O[C@H]5[C@H](O)[C@@H](O)[C@@H](O[C@H]6[C@H](O)[C@@H](O)[C@@H](O[C@H]7[C@H](O)[C@@H](O)[C@@H](O[C@H]1[C@H](O)[C@H]2O)O[C@@H]7CO)O[C@@H]6CO)O[C@@H]5CO)O[C@@H]4CO)O[C@@H]3CO [CD, alpha-cyclodextrin]
binding of [3H]IP3 to the receptor preparation ([1]; alpha-cyclodextrin 2% final w/v in tracer and adrenal cortex preparation): Binding was restored | restoration of antigen:antibody binding ([2]; 1% (w/v) and 2% (w/v) alpha-CD, standards in 1% DTAB): restored binding to a limited degree | restoration of antigen:antibody binding ([2]; 2.5% (w/v) alpha-CD, standards in 1% DTAB): optimal results | restoration of antigen:antibody binding by different sequestrants ([2]; 2.5% (w/v) sequestrant, standards in 1% DTAB): restored binding to an optimal degree | effect on the cAMP standard curve ([2]; 2.5% alpha-CD only, no lysis reagent): little impact | [125I]cAMP bound to SPA beads, counts per minute ([2]; 2.5% alpha-cyclodextrin only, no lysis reagent, 0.2 pmol cAMP/well): 2790 cpm | [125I]cAMP bound to SPA beads, counts per minute ([2]; 2.5% alpha-cyclodextrin only, no lysis reagent, 0.2 pmol cAMP/well, listed as cyclodextrin): 2358 cpm | [125I]cAMP bound to SPA beads, counts per minute ([2]; 2.5% alpha-cyclodextrin only, no lysis reagent, 0.4 pmol cAMP/well): 2485 cpm | [125I]cAMP bound to SPA beads, counts per minute ([2]; 2.5% alpha-cyclodextrin only, no lysis reagent, 0.4 pmol cAMP/well, listed as cyclodextrin): 1979 cpm | [125I]cAMP bound to SPA beads, counts per minute ([2]; 2.5% alpha-cyclodextrin only, no lysis reagent, 0.8 pmol cAMP/well): 1979 cpm | [125I]cAMP bound to SPA beads, counts per minute ([2]; 2.5% alpha-cyclodextrin only, no lysis reagent, 0.8 pmol cAMP/well, listed as cyclodextrin): 1682 cpm | [125I]cAMP bound to SPA beads, counts per minute ([2]; 2.5% alpha-cyclodextrin only, no lysis reagent, 1.6 pmol cAMP/well): 1503 cpm | [125I]cAMP bound to SPA beads, counts per minute ([2]; 2.5% alpha-cyclodextrin only, no lysis reagent, 1.6 pmol cAMP/well, listed as cyclodextrin): 1499 cpm | [125I]cAMP bound to SPA beads, counts per minute ([2]; 2.5% alpha-cyclodextrin only, no lysis reagent, 3.2 pmol cAMP/well): 1058 cpm | [125I]cAMP bound to SPA beads, counts per minute ([2]; 2.5% alpha-cyclodextrin only, no lysis reagent, 3.2 pmol cAMP/well, listed as cyclodextrin): 1143 cpm | [125I]cAMP bound to SPA beads, counts per minute ([2]; 2.5% alpha-cyclodextrin only, no lysis reagent, 6.4 pmol cAMP/well): 674 cpm | [125I]cAMP bound to SPA beads, counts per minute ([2]; 2.5% alpha-cyclodextrin only, no lysis reagent, 6.4 pmol cAMP/well, listed as cyclodextrin): 754 cpm | [125I]cAMP bound to SPA beads, counts per minute ([2]; 2.5% alpha-cyclodextrin only, no lysis reagent, 12.8 pmol cAMP/well): 415 cpm | [125I]cAMP bound to SPA beads, counts per minute ([2]; 2.5% alpha-cyclodextrin only, no lysis reagent, 12.8 pmol cAMP/well, listed as cyclodextrin): 383 cpm | [125I]cAMP bound to SPA beads, counts per minute ([2]; 2.5% alpha-cyclodextrin only, no lysis reagent, NSB (no specific antisera)): 155 cpm | [125I]cAMP bound to SPA beads, counts per minute ([2]; 2.5% alpha-cyclodextrin only, no lysis reagent, NSB (no specific antisera), listed as cyclodextrin): 199 cpm | [125I]cAMP bound to SPA beads, counts per minute ([2]; 2.5% alpha-cyclodextrin only, no lysis reagent, Zero standard): 3300 cpm | [125I]cAMP bound to SPA beads, counts per minute ([2]; 2.5% alpha-cyclodextrin only, no lysis reagent, Zero standard, listed as cyclodextrin): 3145 cpm | restoration of antigen:antibody binding ([2]; 5% (w/v) alpha-CD, standards in 1% DTAB): inhibitory

CCCCCCCCCCCC[N+](C)(C)C.[Br-] [DTAB, dodecyl trimethyl ammonium bromide]
binding of [3H]IP3 to the receptor preparation ([1]; no sequestrant): total inhibition of binding | [125I]cAMP bound to SPA beads, counts per minute ([2]; 1% lysis reagent, no sequestrant, 0.2 pmol cAMP/well): 1118 cpm and 1575 cpm | [125I]cAMP bound to SPA beads, counts per minute ([2]; 1% lysis reagent, no sequestrant, 0.4 pmol cAMP/well): 1098 cpm and 1573 cpm | [125I]cAMP bound to SPA beads, counts per minute ([2]; 1% lysis reagent, no sequestrant, 0.8 pmol cAMP/well): 1088 cpm and 1305 cpm | [125I]cAMP bound to SPA beads, counts per minute ([2]; 1% lysis reagent, no sequestrant, 1.6 pmol cAMP/well): 977 cpm and 1097 cpm | [125I]cAMP bound to SPA beads, counts per minute ([2]; 1% lysis reagent, no sequestrant, 3.2 pmol cAMP/well): 860 cpm and 813 cpm | [125I]cAMP bound to SPA beads, counts per minute ([2]; 1% lysis reagent, no sequestrant, 6.4 pmol cAMP/well): 649 cpm and 619 cpm | [125I]cAMP bound to SPA beads, counts per minute ([2]; 1% lysis reagent, no sequestrant, 12.8 pmol cAMP/well): 440 cpm and 439 cpm | [125I]cAMP bound to SPA beads, counts per minute ([2]; 1% lysis reagent, no sequestrant, NSB (no specific antisera)): 130 cpm and 182 cpm | [125I]cAMP bound to SPA beads, counts per minute ([2]; 1% lysis reagent, no sequestrant, Zero standard): 1429 cpm and 1586 cpm | [125I]cAMP bound to SPA beads, counts per minute ([2]; 1.5% lysis reagent only, 0.2 pmol cAMP/well): 799 cpm | [125I]cAMP bound to SPA beads, counts per minute ([2]; 1.5% lysis reagent only, 0.4 pmol cAMP/well): 713 cpm | [125I]cAMP bound to SPA beads, counts per minute ([2]; 1.5% lysis reagent only, 0.8 pmol cAMP/well): 688 cpm | [125I]cAMP bound to SPA beads, counts per minute ([2]; 1.5% lysis reagent only, 1.6 pmol cAMP/well): 513 cpm | [125I]cAMP bound to SPA beads, counts per minute ([2]; 1.5% lysis reagent only, 3.2 pmol cAMP/well): 426 cpm | [125I]cAMP bound to SPA beads, counts per minute ([2]; 1.5% lysis reagent only, 6.4 pmol cAMP/well): 376 cpm | [125I]cAMP bound to SPA beads, counts per minute ([2]; 1.5% lysis reagent only, 12.8 pmol cAMP/well): 264 cpm | [125I]cAMP bound to SPA beads, counts per minute ([2]; 1.5% lysis reagent only, NSB (no specific antisera)): 237 cpm | [125I]cAMP bound to SPA beads, counts per minute ([2]; 1.5% lysis reagent only, Zero standard): 819 cpm | [125I]cAMP bound to SPA beads, counts per minute ([2]; 2% lysis reagent, no sequestrant, 0.2 pmol cAMP/well): 231 cpm and 198 cpm | [125I]cAMP bound to SPA beads, counts per minute ([2]; 2% lysis reagent, no sequestrant, 0.4 pmol cAMP/well): 231 cpm and 216 cpm | [125I]cAMP bound to SPA beads, counts per minute ([2]; 2% lysis reagent, no sequestrant, 0.8 pmol cAMP/well): 201 cpm | [125I]cAMP bound to SPA beads, counts per minute ([2]; 2% lysis reagent, no sequestrant, 1.6 pmol cAMP/well): 195 cpm and 179 cpm | [125I]cAMP bound to SPA beads, counts per minute ([2]; 2% lysis reagent, no sequestrant, 3.2 pmol cAMP/well): 179 cpm and 176 cpm | [125I]cAMP bound to SPA beads, counts per minute ([2]; 2% lysis reagent, no sequestrant, 6.4 pmol cAMP/well): 170 cpm and 144 cpm | [125I]cAMP bound to SPA beads, counts per minute ([2]; 2% lysis reagent, no sequestrant, 12.8 pmol cAMP/well): 93 cpm and 78 cpm | [125I]cAMP bound to SPA beads, counts per minute ([2]; 2% lysis reagent, no sequestrant, NSB (no specific antisera)): 145 cpm and 138 cpm | [125I]cAMP bound to SPA beads, counts per minute ([2]; 2% lysis reagent, no sequestrant, Zero standard): 272 cpm and 217 cpm
